This assay addresses T1, rat mGluR5 receptors (Rattus norvegicus, UniProt P31424).
T1 construct: rat cerebro-cortical membrane preparation was used; from tissue; host or cells: rat cerebral cortex membranes
Description: mGluR5 receptor binding test, rat cerebro-cortical membrane preparation, [3H]-M-MPEP. To be noted: affinity for rat mGluR5 receptors; [3H]-M-MPEP (2 nM) radioligand. The procedure:
The mGluR5 receptor binding was determined according to the modified method of Gasparini et. al. (Bioorg. Med. Chem. Lett., 2000, 12, 407). Based on the high homology between the human and rat mGluR5 receptors, rat cerebro-cortical membrane preparation was used to determine the binding characteristics of the reference compounds and novel compounds to the rat mGluR5. The A18 cell line expressing hmGluR5a (purchased from Euroscreen) was used to determine binding characteristics of the chemical compounds to the human mGluR5a receptor. [^3H]-M-MPEP (2 nM) was used as radioligand. The nonspecific binding was determined in the presence of 10 μM M-MPEP.
T1 sequence (P31424 21-1203): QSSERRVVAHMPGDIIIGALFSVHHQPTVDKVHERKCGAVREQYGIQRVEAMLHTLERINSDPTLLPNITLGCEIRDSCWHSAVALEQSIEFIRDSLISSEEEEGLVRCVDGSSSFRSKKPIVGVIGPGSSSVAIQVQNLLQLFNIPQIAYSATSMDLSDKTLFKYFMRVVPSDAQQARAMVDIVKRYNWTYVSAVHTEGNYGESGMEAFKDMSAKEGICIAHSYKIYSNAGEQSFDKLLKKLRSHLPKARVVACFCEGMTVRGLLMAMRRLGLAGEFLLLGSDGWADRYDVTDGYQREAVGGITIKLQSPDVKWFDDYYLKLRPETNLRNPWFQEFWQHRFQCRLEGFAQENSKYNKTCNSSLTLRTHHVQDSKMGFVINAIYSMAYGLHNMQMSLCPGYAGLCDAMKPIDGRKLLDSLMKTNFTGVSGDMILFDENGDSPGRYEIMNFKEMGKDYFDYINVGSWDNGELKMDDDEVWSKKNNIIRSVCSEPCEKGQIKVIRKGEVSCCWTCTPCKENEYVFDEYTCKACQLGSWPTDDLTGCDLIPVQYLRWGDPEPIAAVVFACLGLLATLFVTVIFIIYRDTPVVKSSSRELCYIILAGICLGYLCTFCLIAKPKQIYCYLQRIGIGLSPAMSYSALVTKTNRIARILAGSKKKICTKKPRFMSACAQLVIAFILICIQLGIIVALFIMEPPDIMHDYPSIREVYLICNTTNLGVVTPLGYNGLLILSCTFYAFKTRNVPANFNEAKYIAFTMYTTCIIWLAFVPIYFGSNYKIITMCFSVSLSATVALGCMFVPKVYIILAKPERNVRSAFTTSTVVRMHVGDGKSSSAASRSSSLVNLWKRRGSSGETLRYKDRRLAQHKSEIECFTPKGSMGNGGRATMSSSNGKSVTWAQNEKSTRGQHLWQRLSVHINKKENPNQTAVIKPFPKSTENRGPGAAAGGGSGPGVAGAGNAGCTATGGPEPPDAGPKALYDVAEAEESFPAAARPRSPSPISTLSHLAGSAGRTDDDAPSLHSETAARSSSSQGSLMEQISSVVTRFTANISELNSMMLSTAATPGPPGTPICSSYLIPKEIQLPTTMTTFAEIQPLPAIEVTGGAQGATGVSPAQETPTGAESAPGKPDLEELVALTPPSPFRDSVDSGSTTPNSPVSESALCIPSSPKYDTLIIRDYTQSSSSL
In general, Ki refers to a measure of affinity in units of concentration, obtained from inhibition or displacement. Low readings indicate tighter binding, high ones weaker binding. `COc1cccc(S(=O)(=O)c2cnc3ccc(F)cc3c2N2CCC(C)CC2)c1` [Compound 145] yielded a Ki of less than 200 nM.

Molecule `CCc1ccc2ncc(S(=O)(=O)c3ccc(OC)cc3)c(N3CCN(C)CC3)c2c1` [Compound 127] showed a Ki greater than 500 nM.

Regarding `Cc1cc(C)cc(S(=O)(=O)c2cnc3ccc(C)cc3c2N2CCC(C)CC2)c1` [Compound 168], the Ki fell in the range of 200 to 500 nM.

Molecule `CCOC(=O)C1CCN(c2c(S(=O)(=O)c3ccccc3)cnc3ccc(CC)cc23)CC1` [Compound 81] showed a Ki greater than 500 nM.

`CCOC(=O)C1CCCN(c2c(S(=O)(=O)c3ccc(C)cc3)cnc3ccc(OC)cc23)C1` (stereo not drawn) [Compound 58] registered a Ki greater than 500 nM.

Regarding `COc1ccc(S(=O)(=O)c2cnc3cc(F)ccc3c2N2CCOCC2)cc1` [Compound 313], the inhibition constant Ki is greater than 500 nM.

Molecule `O=S(=O)(c1ccccc1)c1cnc2ccc(Cl)cc2c1N1CCOCC1` [Compound 291] yielded a Ki greater than 500 nM.

On to `O=S(=O)(c1cccc(Cl)c1)c1cnc2ccc(F)cc2c1N1CCOCC1` [Compound 285], for which the Ki was greater than 500 nM.

Molecule `Cc1ccc(S(=O)(=O)c2cnc3ccccc3c2N2CCOCC2)cc1` [Compound 101] registered a Ki greater than 500 nM.

In turn, `COc1ccc2ncc(S(=O)(=O)c3cccc(F)c3)c(N3CCC(C)CC3)c2c1` [Compound 243] registered a Ki of 200 to 500 nM.

`COc1ccc(S(=O)(=O)c2cnc3ccc(Cl)cc3c2NCc2ccc(C)cc2)cc1` [Compound 122]: the inhibition constant (Ki) was greater than 500 nM.

As to `Cc1ccc(S(=O)(=O)c2cnc3ccccc3c2N2CCC(C)CC2)cc1` [Compound 2, 3-(4-Methyl-benzenesulfonyl)-4-(4-methyl-piperidin-1-yl)-quinoline], the Ki was less than 200 nM.

`O=S(=O)(c1ccccc1)c1cnc2ccc(F)cc2c1N1CCOCC1` [Compound 279] showed a Ki of less than 200 nM.

`O=S(=O)(c1ccc(F)cc1)c1cnc2cc(Cl)ccc2c1N1CCOCC1` [Compound 321] registered an inhibition constant Ki greater than 500 nM.

The molecule `COc1ccc2ncc(S(=O)(=O)c3ccc(Cl)c(Cl)c3)c(N3CCC(C)CC3)c2c1` [Compound 249] returned a Ki of less than 200 nM.

On to `Cc1ccc(S(=O)(=O)c2cnc3c(F)cccc3c2N2CCOCC2)cc1` [Compound 342], for which the Ki was greater than 500 nM.

For the molecule `CCc1ccc2ncc(S(=O)(=O)c3ccccc3)c(N3CCN(CC)CC3)c2c1` [Compound 63], the Ki was greater than 500 nM.

`COc1ccc2ncc(S(=O)(=O)c3ccccc3)c(N3CCC(C)CC3)c2c1` [Compound 109]: the Ki was greater than 500 nM.

In the case of `CC1CCN(c2c(S(=O)(=O)c3ccccc3)cnc3c(F)cccc23)CC1` [Compound 230], the Ki is greater than 500 nM.

For the molecule `Cc1ccc(S(=O)(=O)c2cnc3cc(F)ccc3c2N2CCOCC2)cc1Cl` [Compound 312], the Ki was less than 200 nM.

Molecule `Cc1cc(C)cc(S(=O)(=O)c2cnc3cc(F)ccc3c2N2CCOCC2)c1` [Compound 317] returned a Ki of 200 to 500 nM.

Take `Cc1ccc(S(=O)(=O)c2cnc3ccc(F)cc3c2N2CCOCC2)cc1F` [Compound 287]: the Ki is greater than 500 nM.

The molecule `Cc1ccc2ncc(S(=O)(=O)c3cc(F)cc(F)c3)c(N3CCC(C)CC3)c2c1` [Compound 154] had a Ki of 200 to 500 nM.

In the case of `COc1ccc(S(=O)(=O)c2cnc3ccc(F)cc3c2N2CCOCC2)cc1Cl` [Compound 284], the Ki was greater than 500 nM.

On to `CCN1CCN(c2c(S(=O)(=O)c3ccc(Cl)cc3)cnc3ccc(C)cc23)CC1` [Compound 62], for which the Ki was greater than 500 nM.

With `Cc1ccc2ncc(S(=O)(=O)c3cccc(Cl)c3)c(N3CCC(C)CC3)c2c1` [Compound 163], the Ki was less than 200 nM.

With `CCN1CCN(c2c(S(=O)(=O)c3ccc(C)c(C)c3)cnc3cc4c(cc23)OCO4)CC1` [Compound 19], the Ki was greater than 500 nM.

Molecule `O=S(=O)(c1ccc(F)c(F)c1)c1cnc2cc(F)ccc2c1N1CCOCC1` [Compound 315] came in with a Ki of 200 to 500 nM.

In turn, `CC1CCN(c2c(S(=O)(=O)c3cccc(F)c3)cnc3c(F)cccc23)CC1` [Compound 232] had a Ki of 200 to 500 nM.

On to `COc1ccc(S(=O)(=O)c2cnc3ccc(Cl)cc3c2NCc2ccccc2)cc1` [Compound 11], for which the Ki is greater than 500 nM.

Take `CCOC(=O)N1CCN(c2c(S(=O)(=O)c3ccc(Cl)cc3)cnc3ccccc23)CC1` [Compound 129]: the Ki was greater than 500 nM.

The molecule `O=S(=O)(c1ccc(F)c(Cl)c1)c1cnc2c(F)cccc2c1N1CCOCC1` [Compound 344] showed a Ki of less than 200 nM.

Consider `Cc1ccc(S(=O)(=O)c2cnc3ccccc3c2N2CCC3(CC2)OCCO3)cc1` [Compound 97], for which the Ki was greater than 500 nM.

Turning to `COc1ccc2ncc(S(=O)(=O)c3cccc(Cl)c3)c(N3CCC(C)CC3)c2c1` [Compound 246], the inhibitory constant (Ki) is greater than 500 nM.

Turning to `O=S(=O)(c1ccc(Cl)cc1)c1cnc2ccc(F)cc2c1N1CCN(Cc2ccccc2)CC1` [Compound 100], the Ki is greater than 500 nM.

`CCOC(=O)C1CCCN(c2c(S(=O)(=O)c3ccc(C)cc3)cnc3ccc(F)cc23)C1` (stereo not drawn) [Compound 99] registered a Ki greater than 500 nM.

`Cc1ccc(Nc2c(S(=O)(=O)c3ccc(Cl)cc3)cnc3ccccc23)cc1C` [Compound 22] yielded a Ki greater than 500 nM.

`Cc1ccc2ncc(S(=O)(=O)c3ccc(C)c(Cl)c3)c(N3CCC(C)CC3)c2c1` [Compound 167] yielded an inhibition constant Ki of less than 200 nM.

On to `COc1ccc(S(=O)(=O)c2cnc3ccc(C)cc3c2N2CCOCC2)cc1Cl` [Compound 261], for which the inhibition constant (Ki) was in the range of 200 to 500 nM.

Consider `COc1ccc2ncc(S(=O)(=O)c3ccc(C)cc3)c(NCc3ccc(F)cc3)c2c1` [Compound 103], for which the Ki was greater than 500 nM.

`Cc1ccc(S(=O)(=O)c2cnc3cc(Cl)ccc3c2N2CCC(C)CC2)cc1C` [Compound 199] returned a Ki of less than 200 nM.

Regarding `CC1CCN(c2c(S(=O)(=O)c3cc(Cl)cc(Cl)c3)cnc3cc(F)ccc23)CC1` [Compound 177], the Ki is less than 200 nM.

In turn, `O=S(=O)(c1ccccc1)c1cnc2ccc(Cl)cc2c1N1CCCC1` [Compound 37] came in with a Ki greater than 500 nM.

Consider `O=S(=O)(c1ccccc1)c1cnc2cc3c(cc2c1N1CCCCC1)OCCO3` [Compound 135], for which the Ki was greater than 500 nM.

For the molecule `Cc1ccc2ncc(S(=O)(=O)c3ccccc3)c(N3CCOCC3)c2c1` [Compound 254], the Ki is less than 200 nM.

The molecule `N#Cc1cccc(S(=O)(=O)c2cnc3ccc(Cl)cc3c2N2CCOCC2)c1` [Compound 299] displayed an inhibition constant Ki greater than 500 nM.

`Cc1ccc(S(=O)(=O)c2cnc3ccccc3c2NCc2ccccc2)cc1` [Compound 77] registered an inhibition constant (Ki) of less than 200 nM.

`CCOc1ccc2ncc(S(=O)(=O)c3ccc(Cl)cc3)c(NCc3ccc(F)cc3)c2c1` [Compound 16] registered a Ki of less than 200 nM.

Consider `CCc1ccc2ncc(S(=O)(=O)c3ccc(OC)cc3)c(N(CC)CC)c2c1` [Compound 12], for which the Ki is greater than 500 nM.

Regarding `COc1ccc(S(=O)(=O)c2cnc3c(F)cccc3c2N2CCC(C)CC2)cc1` [Compound 229], the Ki lay in the range of 200 to 500 nM.

For `Cc1ccc(S(=O)(=O)c2cnc3cc(F)ccc3c2N2CCC(C)CC2)cc1` [Compound 171], the Ki is less than 200 nM.

On to `CC1CCN(c2c(S(=O)(=O)c3ccccc3)cnc3ccc(Cl)cc23)CC1` [Compound 108], for which the Ki was greater than 500 nM.

Regarding `Cc1ccc2ncc(S(=O)(=O)c3ccc(F)c(Cl)c3)c(N3CCC(C)CC3)c2c1` [Compound 169], the Ki was less than 200 nM.

`COc1ccc2ncc(S(=O)(=O)c3ccc(C)cc3)c(N3CCC(C)CC3)c2c1` [Compound 50] returned a Ki greater than 500 nM.

Take `CC1CCN(c2c(S(=O)(=O)c3cccc(Cl)c3)cnc3ccc(Cl)cc23)CC1` [Compound 216]: the Ki is greater than 500 nM.

`COc1ccc2ncc(S(=O)(=O)c3ccc(C)c(Cl)c3)c(N3CCC(C)CC3)c2c1` [Compound 248] registered an inhibition constant (Ki) of less than 200 nM.

For `Cc1ccc(S(=O)(=O)c2cnc3cc(Cl)ccc3c2N2CCOCC2)cc1Cl` [Compound 329], the Ki was less than 200 nM.

`Cc1ccc2ncc(S(=O)(=O)c3ccc(C)c(C)c3)c(N3CCC(C)CC3)c2c1` [Compound 161] came in with a Ki of less than 200 nM.

`O=S(=O)(c1cccc(Cl)c1)c1cnc2ccc(Cl)cc2c1N1CCOCC1` [Compound 297] displayed an inhibition constant Ki greater than 500 nM.

`Cc1ccc(S(=O)(=O)c2cnc3cc(F)ccc3c2N2CCC(C)CC2)cc1C` [Compound 183] showed a Ki of less than 200 nM.

For the molecule `O=S(=O)(c1ccc(Cl)c(Cl)c1)c1cnc2c(F)cccc2c1N1CCOCC1` [Compound 345], the Ki was less than 200 nM.

On to `CCN(CC)c1c(S(=O)(=O)c2ccccc2)cnc2ccc(F)cc12` [Compound 124], for which the Ki was greater than 500 nM.

Molecule `O=S(=O)(c1ccc(Cl)c(Cl)c1)c1cnc2cc(Cl)ccc2c1N1CCOCC1` [Compound 332] returned an inhibitory constant (Ki) of less than 200 nM.

For `CC1CCN(c2c(S(=O)(=O)c3ccc(Cl)cc3)cnc3c(Cl)ccc(Cl)c23)CC1` [Compound 253], the inhibition constant Ki lay within 200 to 500 nM.

Regarding `CC1CCN(c2c(S(=O)(=O)c3ccccc3)cnc3cc4c(cc23)OCCO4)CC1` [Compound 48], the Ki was less than 200 nM.

Turning to `CCOc1ccc2ncc(S(=O)(=O)c3ccccc3)c(N3CCCC3)c2c1` [Compound 36], the Ki was greater than 500 nM.

`COc1ccc2ncc(S(=O)(=O)c3ccc(C)cc3)c(NCc3ccccc3)c2c1` [Compound 87] registered a Ki greater than 500 nM.

`COc1ccc2ncc(S(=O)(=O)c3ccc(Cl)cc3)c(N3CCN(Cc4ccccc4)CC3)c2c1` [Compound 106] yielded a Ki greater than 500 nM.

Regarding `CCOC(=O)C1CCN(c2c(S(=O)(=O)c3ccc(C)cc3)cnc3ccc(CC)cc23)CC1` [Compound 52], the Ki is greater than 500 nM.

`COc1ccc(S(=O)(=O)c2cnc3c(F)cccc3c2N2CCOCC2)cc1` [Compound 338] had a Ki greater than 500 nM.

`Cc1ccc(S(=O)(=O)c2cnc3cc(F)ccc3c2N2CCOCC2)cc1` [Compound 303] registered a Ki greater than 500 nM.

With `CN1CCN(c2c(S(=O)(=O)c3ccc(Cl)cc3)cnc3ccccc23)CC1` [Compound 61], the Ki was greater than 500 nM.

The values above are taken from US20090270371A1, “QUINOLINE DERIVATIVES USEFUL IN THE TREATMENT OF MGLUR5 RECEPTOR-MEDIATED DISORDERS” (priority 2005, published 2009).
